{
  "source": "patent US11674963B2",
  "about": "“GPCRs in cancer-associated fibroblasts” (The Regents of the University of California, priority 2017, dated 2023)",
  "assay_type_in_all_cases": "cell-based, human",
  "key": {"CAFs": {"system": "CAFs", "assay": "Real-time qPCR of GPR68 and IL-6 expression in CAFs at pH 6.8 with PKA or CREB inhibitors", "details": "CAFs cultured 6 h in pH 6.8 media, normalized to pH 7.4", "protocol": "FIG. 6A show CAFs transfected with control or GPR68 siRNA were cultured in pH media for 30 min, treated with 1 mM IBMX for 10 min and cellular cAMP was measured by the HitHunter cAMP assay. Data are mean±SEM, n=3, two-way ANOVA, *p<0.05, ****p<0.0001. […] Results were normalized to those at pH 7.4. n=3, data are mean±SEM, unpaired t test, **p<0.01, ***p<0.001, ns=non-significant. […] Activation of CREB is shown as p-CREB/CREB. Data are mean±SEM, n=3, unpaired t test, *p<0.05. […] Results are normalized to those at pH 7.4. Data are mean±SEM, n=3, unpaired t test, **p<0.01, ***p<0.001, ns=non-significant.\n(§1) RNA isolated using an RNeasy kit with DNase treatment (Qiagen) and converted to cDNA using an iScript cDNA Synthesis Kit (Bio-Rad, Irvine, Calif., USA). cDNA was mixed with gene-specific primers and SYBR green reagent (Quanta Biosciences, Gaithersburg, Md., USA) for PCR amplification using a DNA Engine Opticon 2 system (MJ Research, Waltham, Mass., USA). Primers were designed using Primer Premier 6 software (PREMIER Biosoft, Palo Alto, Calif., USA). Gene expression was quantified as ΔCt using 18S rRNA as the reference gene. Expression of different cells was compared as fold-change=2(AACt). RNA isolated using an RNeasy kit with DNase treatment (Qiagen) and converted to cDNA using an iScript cDNA Synthesis Kit (Bio-Rad, Irvine, Calif., USA). cDNA was mixed with gene-specific primers and SYBR green reagent (Quanta Biosciences, Gaithersburg, Md., USA) for PCR amplification using a DNA Engine Opticon 2 system (MJ Research, Waltham, Mass., USA). Primers were designed using Primer Premier 6 software (PREMIER Biosoft, Palo Alto, Calif., USA). Gene expression was quantified as ΔCt using 18S rRNA as the reference gene. Expression of different cells was compared as fold-change=2(AACt). […] Gene expression was quantified as ΔCt using 18S rRNA as the reference gene. […]\nThe pH media are DMEM containing 5 g/L glucose, 20 mM HEPES, 20 mM NaHCO3, 2% FBS, 100 I.U./ml penicillin and 100 μg/ml streptomycin, pH adjusted by HCl or NaOH at room temperature. […] Cell viability were assessed by a CEllTiter-Glo Luminescent assay (Promega) and detected using a DXT 800 multimode plate reader (Beckman Coulter, Carlsbad, Calif., USA)."}, "PSCs [1]": {"system": "PSCs", "assay": "Real-time qPCR of GPR68 expression in PSCs incubated with TNFα and NF-κB inhibitors", "details": "6 h, TNFα 50 ng/mL; MG-132 20 μM, IKK2 inhibitor VI 5 μM, JSH-23 20 μM, CAY10512 0.3 μM", "excerpt": "(§2) FIGS. 3A-3D show co-culture of PDAC cells and PSCs increases expression by PSCs of GPR68 and fibrotic genes, effects mediated by TNFα and TGFβ, respectively. […] Relative expression was compared by 2^(ΔCt control-ΔCtco-culture). Data are mean±SEM, n=3, unpaired t test, *p<0.05, **p<0.01, ***p<0.001, ****p<0.0001. […] Relative expression was compared by 2^(ΔCt control-ΔCtTGFβ1 or ΔCtTNFα). Data are mean±SEM, n=3, unpaired t test, *p<0.05, **p<0.01, ****p<0.0001. […] Relative expression was compared to control by 2(ΔCt control-ΔCtco-culture). Data are mean±SEM, n=3, unpaired t test, *p<0.05. […] Relative expression was normalized to control by 2(ΔCt^control-ΔCtTGFβ1 or ^ΔCtTNFα) n=3, data are mean±SEM, unpaired t test, *p<0.05, **p<0.01, ****p<0.0001.\nas §1"}, "PSCs [2]": {"system": "PSCs", "assay": "Real-time qPCR of gene expression in PSCs incubated with TGFβ1 or TNFα", "details": "PSCs incubated 48 h with 50 ng/mL", "excerpt": "as §2\nRNA isolated using an RNeasy kit with DNase treatment (Qiagen) and converted to cDNA using an iScript cDNA Synthesis Kit (Bio-Rad, Irvine, Calif., USA). cDNA was mixed with gene-specific primers and SYBR green reagent (Quanta Biosciences, Gaithersburg, Md., USA) for PCR amplification using a DNA Engine Opticon 2 system (MJ Research, Waltham, Mass., USA). Primers were designed using Primer Premier 6 software (PREMIER Biosoft, Palo Alto, Calif., USA). Gene expression was quantified as ΔCt using 18S rRNA as the reference gene. Expression of different cells was compared as fold-change=2(AACt). RNA isolated using an RNeasy kit with DNase treatment (Qiagen) and converted to cDNA using an iScript cDNA Synthesis Kit (Bio-Rad, Irvine, Calif., USA). cDNA was mixed with gene-specific primers and SYBR green reagent (Quanta Biosciences, Gaithersburg, Md., USA) for PCR amplification using a DNA Engine Opticon 2 system (MJ Research, Waltham, Mass., USA). Primers were designed using Primer Premier 6 software (PREMIER Biosoft, Palo Alto, Calif., USA). Gene expression was quantified as ΔCt using 18S rRNA as the reference gene. Expression of different cells was compared as fold-change=2(AACt). The primer sequences are: 18S-F: 5′-[…]-3′ (SEQ ID NO: 1); 18S-R: 5′-[…]-3′ (SEQ ID NO: 2); GPR68-F: 5′-CCTTCCGCTTCCACCAGTT-3′ (SEQ ID NO: 3); GPR68-R: 5′-TCGTCCTCGATGACCTCCT-3′ (SEQ ID NO: 4); ACTA2-F: 5′-[…]-3′ (SEQ ID NO: 5); ACTA2-R: 5′-[…]-3′ (SEQ ID NO: 6); COL1A1-F: 5′-[…]-3′ (SEQ ID NO: 7); COL1A1-R: 5′-[…]-3′ (SEQ ID NO: 8); IL6-F: 5′-[…]-3′ (SEQ ID NO: 9); IL6-R: 5′-[…]-3′ (SEQ ID NO: 10); COL3A1-F: 5′-GCTGGCTACTTCTCGCTCT-3′ (SEQ ID NO: 11); COL3A1-R: 5′-[…]-3′ (SEQ ID NO: 12); POSTN-F: 5′-[…]-3′ (SEQ ID NO: 13); POSTN-R: 5′-[…]-3′ (SEQ ID NO: 14); CTGF-F: 5′-[…]-3′ (SEQ ID NO: 15); CTGF-R: 5′-GCTACAGGCAGGTCAGTGA-3′ (SEQ ID NO: 16); PDGFRB-F: 5′-[…]-3′ (SEQ ID NO: 17); PDGFRB-R: 5′-[…]-3′ (SEQ ID NO: 18). Gene expression was quantified as ΔCt using 18S rRNA as the reference gene. We compared expression of different cells as fold-change=2(AACt)."}},
  "note": "Where a SMILES comes first, the peptide text is derived from it. The star is where a group is joined. Cbz = O=C(OCc1ccccc1)*",
  "data": [
    {"compound": "O=S(=O)(NCCNC/C=C/c1ccc(Br)cc1)c1cccc2cnccc12", "note": "[H89]", "values": [
      {"measurement": "GPR68 expression in CAFs", "setting": "CAFs", "value": "did not alter"},
      {"measurement": "pH 6.8-promoted increase in IL-6 expression by CAFs", "setting": "CAFs", "value": "blocked"}
    ]},
    {"compound": "NC(=O)Nc1sc(-c2ccccc2)cc1C(N)=O", "note": "[IKK2 inhibitor VI]", "values": [
      {"measurement": "TNFα-promoted increase in GPR68 expression in PSCs", "setting": "PSCs [1]", "value": "reduced"}
    ]},
    {"compound": "Cc1ccc(NCCCc2ccccc2)c(N)c1", "note": "[JSH-23]", "values": [
      {"measurement": "TNFα-promoted increase in GPR68 expression in PSCs", "setting": "PSCs [1]", "value": "reduced"}
    ]},
    {"compound": "CC(C)C[C@@H](C=O)NC(=O)[C@H](CC(C)C)NC(=O)[C@H](CC(C)C)NC(=O)OCc1ccccc1", "note": "[MG132] (Cbz-Leu-Leu-Leu-aldehyde)", "values": [
      {"measurement": "TNFα-promoted increase in GPR68 expression in PSCs", "setting": "PSCs [1]", "value": "reduced"}
    ]},
    {"compound": "O=C(Nc1ccc(Cl)cc1)c1cc2ccccc2cc1O", "note": "[naphthol AS-E]", "values": [
      {"measurement": "GPR68 expression in CAFs", "setting": "CAFs", "value": "without altering"},
      {"measurement": "pH 6.8-promoted increase in IL-6 expression by CAFs", "setting": "CAFs", "value": "blunted"}
    ]},
    {"compound": "TGFβ1: Transforming growth factor beta 1, a driver of PSC activation", "values": [
      {"measurement": "ACTA2 expression", "setting": "PSCs [2]", "value": "increased expression"},
      {"measurement": "COL1A1 expression", "setting": "PSCs [2]", "value": "increased expression"},
      {"measurement": "GPR68 expression", "setting": "PSCs [2]; result in words", "value": "did not change"}
    ]},
    {"compound": "TNFα", "values": [
      {"measurement": "ACTA2 expression", "setting": "PSCs [2]", "value": "not higher"},
      {"measurement": "COL1A1 expression", "setting": "PSCs [2]", "value": "not higher"},
      {"measurement": "expression of GPR68", "setting": "PSCs [2]; higher vs control", "value": 18, "unit": "fold"},
      {"measurement": "expression of IL-6", "setting": "PSCs [2]; higher vs control", "value": 31, "unit": "fold"}
    ]}
  ]
}
